Measured values from publication doi:10.1101/2021.02.21.432137v1 (biorxiv, 2021).

Key:
Conditions in all cases: binder
[1] = molecular target: JAK2 (Homo sapiens, UniProt O60674)
[2] = molecular target: T1, MAP3K15 (Homo sapiens, UniProt Q6ZN16)
T1 sequence (Q6ZN16 1-1313): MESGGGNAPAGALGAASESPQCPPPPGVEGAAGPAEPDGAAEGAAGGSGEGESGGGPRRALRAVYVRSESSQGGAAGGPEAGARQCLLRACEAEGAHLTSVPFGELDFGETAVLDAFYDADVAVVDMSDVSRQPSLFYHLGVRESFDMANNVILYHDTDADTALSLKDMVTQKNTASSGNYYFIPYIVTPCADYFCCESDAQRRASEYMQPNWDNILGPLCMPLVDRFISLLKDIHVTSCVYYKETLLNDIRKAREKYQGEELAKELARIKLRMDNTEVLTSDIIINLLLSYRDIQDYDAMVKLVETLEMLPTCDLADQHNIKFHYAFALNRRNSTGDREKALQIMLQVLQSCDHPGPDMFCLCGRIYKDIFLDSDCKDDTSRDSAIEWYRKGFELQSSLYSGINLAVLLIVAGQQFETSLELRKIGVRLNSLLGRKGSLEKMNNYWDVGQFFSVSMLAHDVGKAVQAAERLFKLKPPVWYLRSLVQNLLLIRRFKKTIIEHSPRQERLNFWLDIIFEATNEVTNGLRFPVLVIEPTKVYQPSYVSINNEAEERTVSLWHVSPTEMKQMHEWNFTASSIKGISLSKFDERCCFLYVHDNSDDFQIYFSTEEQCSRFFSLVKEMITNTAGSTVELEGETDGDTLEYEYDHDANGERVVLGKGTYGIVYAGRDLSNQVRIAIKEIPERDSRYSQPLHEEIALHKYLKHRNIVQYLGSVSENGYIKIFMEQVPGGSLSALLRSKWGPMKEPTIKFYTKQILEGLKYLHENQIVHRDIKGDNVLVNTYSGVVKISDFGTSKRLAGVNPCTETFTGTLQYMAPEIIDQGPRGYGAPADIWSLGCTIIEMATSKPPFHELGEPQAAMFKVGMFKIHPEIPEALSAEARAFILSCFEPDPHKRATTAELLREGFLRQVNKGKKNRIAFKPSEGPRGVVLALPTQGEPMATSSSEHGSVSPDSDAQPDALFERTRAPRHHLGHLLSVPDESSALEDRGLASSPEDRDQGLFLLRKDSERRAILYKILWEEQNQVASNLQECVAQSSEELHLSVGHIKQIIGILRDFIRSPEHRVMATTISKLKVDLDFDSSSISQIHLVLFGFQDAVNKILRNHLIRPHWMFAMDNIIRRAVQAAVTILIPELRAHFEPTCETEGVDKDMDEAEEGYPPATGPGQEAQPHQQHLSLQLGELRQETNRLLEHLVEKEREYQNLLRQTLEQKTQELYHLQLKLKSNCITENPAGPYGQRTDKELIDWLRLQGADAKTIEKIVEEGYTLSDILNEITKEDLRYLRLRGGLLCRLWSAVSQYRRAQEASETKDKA

[3] = molecular target: T2, NUAK1 (Homo sapiens, UniProt O60285)
T2 sequence (O60285 1-661): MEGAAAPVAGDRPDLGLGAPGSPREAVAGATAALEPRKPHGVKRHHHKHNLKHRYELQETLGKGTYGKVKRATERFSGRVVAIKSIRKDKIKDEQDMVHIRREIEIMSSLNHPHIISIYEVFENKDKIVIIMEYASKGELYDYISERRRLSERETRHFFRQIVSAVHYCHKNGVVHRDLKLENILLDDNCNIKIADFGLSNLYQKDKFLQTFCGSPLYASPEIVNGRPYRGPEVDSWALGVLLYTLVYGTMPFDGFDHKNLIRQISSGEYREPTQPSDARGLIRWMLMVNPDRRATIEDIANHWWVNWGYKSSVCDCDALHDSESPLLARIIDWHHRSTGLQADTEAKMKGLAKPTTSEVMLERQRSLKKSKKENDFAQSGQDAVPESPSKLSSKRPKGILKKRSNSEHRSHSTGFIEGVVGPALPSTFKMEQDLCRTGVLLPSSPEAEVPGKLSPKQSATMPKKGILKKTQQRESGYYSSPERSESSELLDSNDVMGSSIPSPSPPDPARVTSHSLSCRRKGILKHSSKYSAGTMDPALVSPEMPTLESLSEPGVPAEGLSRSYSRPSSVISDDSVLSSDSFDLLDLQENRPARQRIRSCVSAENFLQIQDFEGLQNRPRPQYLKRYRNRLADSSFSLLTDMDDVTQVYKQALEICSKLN

[4] = molecular target: T3, STK3 (MST2) (Homo sapiens, UniProt Q13188)
T3 sequence (Q13188 1-491): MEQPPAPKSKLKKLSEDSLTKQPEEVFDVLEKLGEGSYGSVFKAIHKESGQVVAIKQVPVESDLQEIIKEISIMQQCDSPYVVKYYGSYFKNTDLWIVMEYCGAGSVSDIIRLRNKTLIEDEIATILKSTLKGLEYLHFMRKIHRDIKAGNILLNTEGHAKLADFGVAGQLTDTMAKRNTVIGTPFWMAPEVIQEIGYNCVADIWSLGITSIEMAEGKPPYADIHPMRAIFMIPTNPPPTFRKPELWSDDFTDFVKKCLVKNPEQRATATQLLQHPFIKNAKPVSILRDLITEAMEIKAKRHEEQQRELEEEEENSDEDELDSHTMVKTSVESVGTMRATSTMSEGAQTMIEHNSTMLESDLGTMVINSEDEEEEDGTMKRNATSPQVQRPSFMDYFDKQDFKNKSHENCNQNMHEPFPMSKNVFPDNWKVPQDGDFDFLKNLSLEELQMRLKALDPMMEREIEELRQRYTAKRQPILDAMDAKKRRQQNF

[5] = molecular target: TYK2 (Homo sapiens, UniProt P29597)
Sequence of TYK2 (P29597 whole entry): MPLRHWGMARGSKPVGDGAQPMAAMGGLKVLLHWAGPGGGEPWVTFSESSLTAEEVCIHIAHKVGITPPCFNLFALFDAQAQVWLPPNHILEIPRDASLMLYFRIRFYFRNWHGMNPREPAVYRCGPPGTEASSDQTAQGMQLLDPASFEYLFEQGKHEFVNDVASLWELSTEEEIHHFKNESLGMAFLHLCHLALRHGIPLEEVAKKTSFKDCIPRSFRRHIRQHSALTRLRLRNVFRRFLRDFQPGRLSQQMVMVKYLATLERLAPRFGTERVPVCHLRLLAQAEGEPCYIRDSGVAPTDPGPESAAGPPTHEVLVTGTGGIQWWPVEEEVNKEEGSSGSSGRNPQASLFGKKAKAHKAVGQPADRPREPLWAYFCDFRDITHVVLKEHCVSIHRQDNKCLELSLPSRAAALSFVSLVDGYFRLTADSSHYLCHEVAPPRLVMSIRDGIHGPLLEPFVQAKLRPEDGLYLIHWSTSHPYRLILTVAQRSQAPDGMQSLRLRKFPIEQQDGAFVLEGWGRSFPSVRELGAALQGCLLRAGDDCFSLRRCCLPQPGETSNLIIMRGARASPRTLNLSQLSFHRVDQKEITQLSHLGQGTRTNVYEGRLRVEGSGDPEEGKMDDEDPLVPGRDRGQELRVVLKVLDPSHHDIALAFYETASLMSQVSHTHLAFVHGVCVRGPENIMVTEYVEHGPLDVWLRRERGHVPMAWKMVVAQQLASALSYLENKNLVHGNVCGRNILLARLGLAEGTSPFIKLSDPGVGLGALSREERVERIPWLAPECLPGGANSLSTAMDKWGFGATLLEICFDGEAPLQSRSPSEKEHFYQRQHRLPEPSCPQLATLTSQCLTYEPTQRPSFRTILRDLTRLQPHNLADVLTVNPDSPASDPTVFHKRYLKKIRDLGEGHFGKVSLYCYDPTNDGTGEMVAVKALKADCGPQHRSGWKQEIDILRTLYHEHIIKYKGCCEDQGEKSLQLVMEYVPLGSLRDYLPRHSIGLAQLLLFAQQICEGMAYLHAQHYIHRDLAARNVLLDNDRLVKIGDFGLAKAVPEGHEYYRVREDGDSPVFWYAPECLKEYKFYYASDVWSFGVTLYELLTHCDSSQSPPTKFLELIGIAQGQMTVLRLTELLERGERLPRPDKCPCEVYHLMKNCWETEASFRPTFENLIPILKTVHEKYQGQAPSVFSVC

Sequence of JAK2 (O60674 whole entry): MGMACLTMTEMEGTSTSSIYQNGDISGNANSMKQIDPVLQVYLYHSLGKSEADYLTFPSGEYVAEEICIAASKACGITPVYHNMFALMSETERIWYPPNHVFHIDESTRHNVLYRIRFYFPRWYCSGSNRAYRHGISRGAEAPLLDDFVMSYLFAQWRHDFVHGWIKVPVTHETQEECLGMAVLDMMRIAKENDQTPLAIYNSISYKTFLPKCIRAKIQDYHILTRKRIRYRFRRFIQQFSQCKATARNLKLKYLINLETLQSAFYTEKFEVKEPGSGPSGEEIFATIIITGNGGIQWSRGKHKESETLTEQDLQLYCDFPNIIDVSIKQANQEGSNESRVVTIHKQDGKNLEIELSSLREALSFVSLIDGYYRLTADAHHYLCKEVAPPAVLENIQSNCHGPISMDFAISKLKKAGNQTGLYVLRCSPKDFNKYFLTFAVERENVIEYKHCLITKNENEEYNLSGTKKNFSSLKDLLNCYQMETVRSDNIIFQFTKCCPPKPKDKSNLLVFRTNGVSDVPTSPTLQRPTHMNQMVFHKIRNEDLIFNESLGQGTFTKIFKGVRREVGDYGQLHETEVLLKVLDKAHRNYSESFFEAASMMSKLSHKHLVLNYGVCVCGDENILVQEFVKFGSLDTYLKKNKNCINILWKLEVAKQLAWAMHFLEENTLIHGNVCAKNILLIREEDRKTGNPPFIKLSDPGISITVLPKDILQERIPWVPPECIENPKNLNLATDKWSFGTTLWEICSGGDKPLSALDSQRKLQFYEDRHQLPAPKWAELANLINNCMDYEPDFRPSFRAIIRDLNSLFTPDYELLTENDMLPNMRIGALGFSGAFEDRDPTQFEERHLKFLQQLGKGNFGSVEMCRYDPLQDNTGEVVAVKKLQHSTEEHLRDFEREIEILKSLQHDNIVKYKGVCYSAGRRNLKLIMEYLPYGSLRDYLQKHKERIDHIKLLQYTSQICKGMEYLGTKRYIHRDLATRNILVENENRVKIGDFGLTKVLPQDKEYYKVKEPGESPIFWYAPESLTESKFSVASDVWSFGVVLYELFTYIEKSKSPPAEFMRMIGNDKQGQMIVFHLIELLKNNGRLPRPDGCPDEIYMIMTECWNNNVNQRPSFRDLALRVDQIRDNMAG

With C[C@H](NC(=O)c1c[nH]c2ncc(C3CC3)nc12)C(C)(C)C [A1, UNC-BE4-017] the “Compound A1 PoC” value [1] was 0.4%, the “Compound A1 PoC” value [2] was 0% and the “Compound A1 PoC” value [3] was 4.1%. For the same compound, the “Compound A1 PoC” value [4] was 0% and the “Compound A1 PoC” value [5] was 6.9%.
